Measurements published in article PMC10529594, “Strasseriolides display in vitro and in vivo activity against trypanosomal parasites and cause morphological and size defects in Trypanosoma cruzi” (PLOS Neglected Tropical Diseases, 2023).

Legend:
[1] = test system: L. donovani MHOM/ET/67/HU3 transgenic intracellular amastigotes; experiment: L. donovani intracellular amastigote assay (luciferase, THP-1 macrophages); format: cell-based; settings: Leishmania donovani, THP-1, 72 h, read-out: EC50 L. donovani
Procedure: Leishmania donovani MHOM/ET/67/HU3 cells with the luciferase gene integrated into the parasite genome was obtained as described. Parasites were grown at 28°C in RPMI 1640-modified medium supplemented with 20% heat-inactivated fetal bovine serum (iFBS, Invitrogen) with […] of hygromycin B.
THP-1 cells were differentiated into macrophages with 20 ng/mL of PMA in a 96-well plate at 3 × 10^4 cells per well for 48 hours followed by 24 hours of culture in fresh medium. Cells were then infected with transgenic stationary L. donovani MHOM/ET/67/HU3 promastigotes expressing the luciferase gene at a multiplicity of infection (MOI) of 10. A volume of 100 μL of culture media containing the test compounds was added to each well and the plates were incubated at 37°C for 72 hours. Luminescence was measured using the Promega kit luciferase assay system.

[2] = test system: human macrophage THP-1 cells; experiment: Cytotoxicity in THP-1 macrophages (MTT); format: cell-based
Procedure: Cellular toxicity of compounds in the human macrophage host TPH-1 cell line was determined using the colorimetric MTT-based assay as previously described.
THP-1 cells were seeded at 3 × 10^4 cells/well in 96-well plates and were differentiated to macrophages with 20 ng/ml of PMA treatment for 48 h followed by 24 h incubation in fresh medium. Strasseriolides were added at increasing concentrations up to 50 μM and cells were further incubated at 37°C for 72 h. 10 μL of MTT (5 mg/mL in PBS) were added to each well, and plates were incubated for an additional period of 8 h at 37°C. Formazan crystals were dissolved by adding 50 μL of 20% SDS and absorbance was read at 595 nm using a microplate reader.

[3] = test system: T. b. brucei 427 bloodstream forms; experiment: Resazurin-based T. b. brucei assay; format: cell-based; settings: Trypanosoma brucei, 72 h, read-out: EC50 T. brucei
Procedure: Parasites strains adapted to culture in vitro were used. T. b. brucei Lister 427 bloodstream form parasites (information about the identity and genealogy of this strain is available at The Rockefeller University website) were grown in HMI-9 medium supplemented with 10% heat-inactivated fetal bovine serum (iFBS).
Cells in logarithmic phase of growth were added using a Multidrop dispenser (45 μL, 500 bloodstream T. b. brucei parasites per well) to 384-well Corning assay plates already containing 5 μL of each compound and controls, and incubated for 72 hours at 37°C. 10 μL of resazurin were added per well, and the plates were further incubated for 6 hours at 37°C. The final fluorescence was determined at 550–590 nm. Pentamidine at 40 nM and 0.0067% DMSO were used as […] growth controls, respectively.

[4] = test system: T. cruzi Tulahuen C4 epimastigotes; experiment: T. cruzi epimastigotes growth inhibition assay (resazurin); format: cell-based, Trypanosoma cruzi; settings: 72 h
Procedure: (§1) The Trypanosoma cruzi Tulahuen strain used is a genetically modified strain that expresses the Escherichia coli β-galactosidase gene, lacZ [31]. It was kindly supplied by Marcel Kaiser (Swiss Tropical and Public Health Institute). The T. cruzi Tulahuen C4 strain was cultured in RPMI-1640 supplemented with 10% inactivated FBS (iFBS), 1.7 mM L-glutamine, 100 U/mL penicillin, and […] at 37°C and 5% CO2. L6 rat skeletal muscle cells were purchased from ATCC (reference CRL-1458) and used as host cells for infection with transgenic T. cruzi trypomastigotes. Epimastigotes were obtained by differentiation in LIT medium with 10% iFBS at 28°C from trypomastigote forms.
A resazurin-based assay was set up in 96-well microplates containing 10 μL of test compound at concentrations ranging from 0.39 to 200 μM and log phase parasites seeded at 2 × 10^5 cells per well in a final volume of 100 μL. Maximum DMSO percentage in the well was 0.2%. Positive and negative growth controls were included. Following 72 hour incubation at 28°C with orbital shaking, 10 μL of resazurin solution were added to each well and the plates were returned to the incubator for 4 hours. Resazurin reduction was correlated to cell viability by fluorescence measurement with excitation and emission wavelength bands centered at 550 and 590 nm, respectively, in a Tecan Infinite 200 microplate reader.

[5] = test system: L6 rat myoblast cells; experiment: Cytotoxicity evaluation in L6 cells (resazurin); format: cell-based; settings: Rattus norvegicus, Myoblast; 72 h, resazurin; read-out: EC50 L6
Procedure: One hundred microliters of supplemented RPMI 1640 medium containing the compounds and controls were added to L6 rat myoblast cells previously seeded (4,000 cells per well) in a 96-well microplate. After 72 hours at 37°C the viable cell number was determined by resazurin reduction. 20 μL of resazurin at 0.11 mg/mL in PBS 1X were added to each well and incubated in the dark for 2 hours at 37°C. Cell viability was estimated by measuring the final fluorescence at 570–590 nm in a Tecan Infinite F200 plate reader.

[6] = test system: T. cruzi Tulahuen C4 intracellular amastigotes; experiment: β-D-galactosidase transgenic T. cruzi assay (intracellular amastigotes in L6 cells, CPRG); format: cell-based; settings: Trypanosoma cruzi
Procedure: as §1
A Thermo Scientific Multidrop Combi dispenser was used to dispense 55 μL of T. cruzi infected L6 cells (2 ×10^3 cells per well) into 384-well Corning assay plates already containing 5 μL of each compound at concentrations ranging from 0.0015 to 50 μM and controls. The plates were incubated at 37°C for 96 hours upon which 15 μL of lysis buffer (0.5 mM CPRG, 0.5% NP40) were added to each well and further incubated for 4 hours in the dark. Absorbance at 585 nm was measured in a Perkin Elmer Envision plate reader.

SMILES: C/C1=C\[C@H](C)[C@@H](O)C[C@@H](O)/C(C)=C/[C@H](C)C[C@@H](C)CC[C@@H]([C@@H](C)C(=O)O)OC(=O)[C@@H](C)C1 [Strasseriolide D, strasseriolide D]
- EC50 [1]: 13.6 µM
- Selectivity index intracellular L. donovani versus THP-1 cells [2]: > 37
- EC50 ([2]; Homo sapiens, THP-1, 72 h, MTT, read-out: EC50 THP-1): > 500 µM
- EC50 [3]: > 100 µM
- EC30, epimastigotes ([4]; from dose-response curve): 36 µM
- EC70, epimastigotes ([4]; from dose-response curve): 68 µM
- EC50 ([4]; Trypanosoma cruzi, TULAHUEN, Tulahuen C4, 72 h, resazurin): 42.4 µM
- EC50 [5]: > 100 µM
- inhibition at 0.00152588 µM ([6]; TULAHUEN, L6, T. cruzi amastigotes, 96-hour treatment, 0.00152588 µM, read-out: Growth inhibition (%) Average): 7.88%
- inhibition at 0.00305176 µM ([6]; TULAHUEN, L6, T. cruzi amastigotes, 96-hour treatment, 0.00305176 µM, read-out: Growth inhibition (%) Average): 6.33%
- inhibition at 0.00610352 µM ([6]; TULAHUEN, L6, T. cruzi amastigotes, 96-hour treatment, 0.00610352 µM, read-out: Growth inhibition (%) Average): 2.28%
- inhibition at 0.012207 µM ([6]; TULAHUEN, L6, T. cruzi amastigotes, 96-hour treatment, 0.012207 µM, read-out: Growth inhibition (%) Average): 4.26%
- inhibition at 0.0244141 µM ([6]; TULAHUEN, L6, T. cruzi amastigotes, 96-hour treatment, 0.0244141 µM, read-out: Growth inhibition (%) Average): 4.84%
- inhibition at 0.0488281 µM ([6]; TULAHUEN, L6, T. cruzi amastigotes, 96-hour treatment, 0.0488281 µM, read-out: Growth inhibition (%) Average): 2.75%
- inhibition at 0.0976562 µM ([6]; TULAHUEN, L6, T. cruzi amastigotes, 96-hour treatment, 0.0976562 µM, read-out: Growth inhibition (%) Average): 2.22%
- inhibition at 0.195312 µM ([6]; TULAHUEN, L6, T. cruzi amastigotes, 96-hour treatment, 0.195312 µM, read-out: Growth inhibition (%) Average): 7.23%
- inhibition at 0.390625 µM ([6]; TULAHUEN, L6, T. cruzi amastigotes, 96-hour treatment, 0.390625 µM, read-out: Growth inhibition (%) Average): 4.8%
- inhibition at 0.78125 µM ([6]; TULAHUEN, L6, T. cruzi amastigotes, 96-hour treatment, 0.78125 µM, read-out: Growth inhibition (%) Average): 4.2%
- inhibition at 1.5625 µM ([6]; TULAHUEN, L6, T. cruzi amastigotes, 96-hour treatment, 1.5625 µM, read-out: Growth inhibition (%) Average): 8.54%
- inhibition at 3.125 µM ([6]; TULAHUEN, L6, T. cruzi amastigotes, 96-hour treatment, 3.125 µM, read-out: Growth inhibition (%) Average): 21.2%
- inhibition at 6.25 µM ([6]; TULAHUEN, L6, T. cruzi amastigotes, 96-hour treatment, 6.25 µM, read-out: Growth inhibition (%) Average): 66.1%
- inhibition at 12.5 µM ([6]; TULAHUEN, L6, T. cruzi amastigotes, 96-hour treatment, 12.5 µM, read-out: Growth inhibition (%) Average): 100%
- inhibition at 25 µM ([6]; TULAHUEN, L6, T. cruzi amastigotes, 96-hour treatment, 25 µM, read-out: Growth inhibition (%) Average): 112%
- inhibition at 50 µM ([6]; TULAHUEN, L6, T. cruzi amastigotes, 96-hour treatment, 50 µM, read-out: Growth inhibition (%) Average): 113%
- EC50 ([6]; Tulahuen C4 in L6 cells, 96 h, CPRG): 5.61 µM
